What was measured:
[1] = target: hT2R10 (Homo sapiens (Human), UniProt Q9NYW0); experiment: hT2R panel inhibition, transient HEK293 G16g44, agonist Strychnine 50 μM; format: cell-based; settings: HEK293, read-out: screening result against bitter receptor 10, compound at 25 μM; receptor activated to EC80 with the corresponding agonist
[2] = target: T1, hT2R14 (Homo sapiens (Human), UniProt Q9NYV8); experiment: hT2R panel inhibition, transient HEK293 G16g44, agonist Aristolochic Acid 2 μM; format: cell-based; settings: HEK293, compound at 25 μM; receptor activated to EC80 with the corresponding agonist; read-out: screening result against bitter receptor 14
T1 sequence (Q9NYV8 whole entry): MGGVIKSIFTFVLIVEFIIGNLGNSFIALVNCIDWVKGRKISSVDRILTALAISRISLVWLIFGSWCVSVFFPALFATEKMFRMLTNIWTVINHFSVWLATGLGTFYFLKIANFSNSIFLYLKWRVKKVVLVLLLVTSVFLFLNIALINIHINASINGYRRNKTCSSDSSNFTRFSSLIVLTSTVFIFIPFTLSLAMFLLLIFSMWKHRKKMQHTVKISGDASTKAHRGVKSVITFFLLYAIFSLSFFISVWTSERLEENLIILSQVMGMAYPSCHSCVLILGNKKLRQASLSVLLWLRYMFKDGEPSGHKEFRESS
Summary of the method: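 Agonist challenge was at EC80, with 0.5 mM andrographolide on hT2R8 and 2 μM aristolochic acid on hT2R14. Inhibition was measured in functional assays in HEK293 cells that stably carry the promiscuous G protein G16g44 and were transiently transfected with the individual receptor.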

[3] = system: hT2R54; experiment: hT2R panel inhibition, transient HEK293 G16g44, agonist Ranitidine 5 mM; format: cell-based, human; settings: compound at 25 μM; receptor activated to EC80 with the corresponding agonist
Summary of the method: (§1)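 Cells stably bearing the promiscuous G protein received one human T2R each by transient transfection and were assayed functionally. Ligands used at EC80; the test compound's inhibition equals the lowered activity.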

[4] = system: hT2R67; experiment: hT2R panel inhibition, transient HEK293 G16g44, agonist Andrographolide 5 μM; format: cell-based, human; settings: compound at 25 μM; receptor activated to EC80 with the corresponding agonist
Summary of the method: as §1

[5] = target: hT2R75 (Homo sapiens (Human), UniProt P59540); experiment: hT2R panel inhibition, transient HEK293 G16g44, agonist Strychnine 1 μM; format: cell-based; settings: HEK293, read-out: screening result against bitter receptor 75, compound at 25 μM; receptor activated to EC80 with the corresponding agonist
Chain of hT2R75 (P59540 whole entry): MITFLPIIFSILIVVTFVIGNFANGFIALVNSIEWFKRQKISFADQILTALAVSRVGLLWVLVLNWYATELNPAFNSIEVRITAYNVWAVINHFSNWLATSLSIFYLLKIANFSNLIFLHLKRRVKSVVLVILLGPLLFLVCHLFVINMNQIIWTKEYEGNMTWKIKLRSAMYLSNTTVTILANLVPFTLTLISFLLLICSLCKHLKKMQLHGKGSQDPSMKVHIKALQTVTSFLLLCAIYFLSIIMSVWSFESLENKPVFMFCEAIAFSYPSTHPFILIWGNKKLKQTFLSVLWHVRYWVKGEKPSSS

[6] = target: hT2R16 (Homo sapiens (Human), UniProt Q9NYV7); experiment: hT2R panel inhibition, transient HEK293 G16g44, agonist Salicin 1 mM; format: cell-based; settings: HEK293, compound at 25 μM; receptor activated to EC80 with the corresponding agonist; read-out: screening result against bitter receptor 16
Chain of hT2R16 (Q9NYV7 whole entry): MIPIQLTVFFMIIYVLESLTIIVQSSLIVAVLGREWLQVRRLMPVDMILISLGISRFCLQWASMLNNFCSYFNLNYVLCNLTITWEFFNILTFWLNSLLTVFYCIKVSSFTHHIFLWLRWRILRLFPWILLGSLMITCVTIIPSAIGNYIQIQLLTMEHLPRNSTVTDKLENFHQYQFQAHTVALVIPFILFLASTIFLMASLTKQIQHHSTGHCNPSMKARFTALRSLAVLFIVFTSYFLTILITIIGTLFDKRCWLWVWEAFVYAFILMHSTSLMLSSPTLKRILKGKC
Summary of the method: as §1

[7] = target: hT2R61 (Homo sapiens (Human), UniProt P59537); experiment: hT2R panel inhibition, transient HEK293 G16g44, agonist Aristolochic Acid 25 nM; format: cell-based; settings: HEK293, compound at 25 μM; receptor activated to EC80 with the corresponding agonist; read-out: screening result against bitter receptor 61
Chain of hT2R61 (P59537 whole entry): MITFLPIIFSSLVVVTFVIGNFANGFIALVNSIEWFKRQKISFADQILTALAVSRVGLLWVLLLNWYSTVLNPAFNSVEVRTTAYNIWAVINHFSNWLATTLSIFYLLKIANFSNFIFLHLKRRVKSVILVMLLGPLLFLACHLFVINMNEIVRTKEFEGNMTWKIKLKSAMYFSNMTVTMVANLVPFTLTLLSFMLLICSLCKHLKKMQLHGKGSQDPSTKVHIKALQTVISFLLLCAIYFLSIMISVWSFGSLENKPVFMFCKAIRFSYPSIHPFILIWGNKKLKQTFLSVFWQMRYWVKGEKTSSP
Summary of the method: as §1

[8] = target: hT2R64 (Homo sapiens (Human), UniProt P59538); experiment: hT2R panel inhibition, transient HEK293 G16g44, agonist Aristolochic Acid 1 μM; format: cell-based; settings: HEK293, compound at 25 μM; receptor activated to EC80 with the corresponding agonist; read-out: screening result against bitter receptor 64
Chain of hT2R64 (P59538 whole entry): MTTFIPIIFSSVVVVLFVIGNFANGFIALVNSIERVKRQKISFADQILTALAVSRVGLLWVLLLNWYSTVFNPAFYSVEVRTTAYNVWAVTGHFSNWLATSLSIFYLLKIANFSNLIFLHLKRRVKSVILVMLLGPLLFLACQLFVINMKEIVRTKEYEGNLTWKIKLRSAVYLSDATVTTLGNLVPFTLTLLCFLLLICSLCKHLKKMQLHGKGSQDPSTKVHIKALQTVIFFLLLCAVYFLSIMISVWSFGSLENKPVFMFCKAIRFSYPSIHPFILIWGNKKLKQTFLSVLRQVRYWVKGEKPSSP
Summary of the method: as §1

[9] = target: hT2R3 (Homo sapiens (Human), UniProt Q9NYW6); experiment: hT2R panel inhibition, transient HEK293 G16g44, agonist Chloroquine pH6.5 50 μM; format: cell-based; settings: HEK293, compound at 25 μM; receptor activated to EC80 with the corresponding agonist; read-out: screening result against bitter receptor 3
Chain of hT2R3 (Q9NYW6 whole entry): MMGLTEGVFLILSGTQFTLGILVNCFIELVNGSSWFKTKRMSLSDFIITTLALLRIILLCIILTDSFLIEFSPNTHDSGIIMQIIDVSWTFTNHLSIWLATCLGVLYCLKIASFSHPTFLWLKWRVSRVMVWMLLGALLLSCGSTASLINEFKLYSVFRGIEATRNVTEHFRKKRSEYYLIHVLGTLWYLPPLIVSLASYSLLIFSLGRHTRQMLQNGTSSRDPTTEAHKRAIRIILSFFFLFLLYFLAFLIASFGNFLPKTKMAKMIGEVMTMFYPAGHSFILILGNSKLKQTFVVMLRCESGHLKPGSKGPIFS
Summary of the method: as §1

[10] = target: hT2R51 (Homo sapiens (Human), UniProt P59533); experiment: hT2R panel inhibition, transient HEK293 G16g44, agonist Prop 2.5 μM; format: cell-based; settings: HEK293, compound at 25 μM; receptor activated to EC80 with the corresponding agonist; read-out: screening result against bitter receptor 51
Chain of hT2R51 (P59533 whole entry): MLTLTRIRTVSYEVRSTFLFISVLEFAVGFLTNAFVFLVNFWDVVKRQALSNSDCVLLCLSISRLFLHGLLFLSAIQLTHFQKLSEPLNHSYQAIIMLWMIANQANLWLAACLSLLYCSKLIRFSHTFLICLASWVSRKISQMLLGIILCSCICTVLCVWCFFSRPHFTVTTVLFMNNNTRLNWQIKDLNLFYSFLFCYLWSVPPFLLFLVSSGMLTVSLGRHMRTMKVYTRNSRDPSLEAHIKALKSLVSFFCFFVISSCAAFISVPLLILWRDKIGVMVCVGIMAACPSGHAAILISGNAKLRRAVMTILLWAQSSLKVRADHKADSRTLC
Summary of the method: as §1

[11] = target: hT2R7 (Homo sapiens (Human), UniProt Q9NYW3); experiment: hT2R panel inhibition, transient HEK293 G16g44, agonist Chloroquine pH6.5 10 mM; format: cell-based; settings: HEK293, compound at 25 μM; receptor activated to EC80 with the corresponding agonist; read-out: screening result against bitter receptor 7
Chain of hT2R7 (Q9NYW3 whole entry): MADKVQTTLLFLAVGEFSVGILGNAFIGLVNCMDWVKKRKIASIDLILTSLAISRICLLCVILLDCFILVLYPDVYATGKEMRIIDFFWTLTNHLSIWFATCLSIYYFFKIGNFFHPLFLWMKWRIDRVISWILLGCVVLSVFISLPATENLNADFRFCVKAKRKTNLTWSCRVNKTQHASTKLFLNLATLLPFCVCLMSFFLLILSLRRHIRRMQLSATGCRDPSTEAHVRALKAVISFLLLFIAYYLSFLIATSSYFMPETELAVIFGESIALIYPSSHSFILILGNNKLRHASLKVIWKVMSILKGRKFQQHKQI
Summary of the method: as §1

[12] = system: hT2R44; experiment: hT2R panel inhibition, transient HEK293 G16g44, agonist Denatonium 0.5 μM; format: cell-based, human; settings: compound at 25 μM; receptor activated to EC80 with the corresponding agonist
Summary of the method: as §1

[13] = target: hT2R71 (Homo sapiens (Human), UniProt P59536); experiment: hT2R panel inhibition, transient HEK293 G16g44, agonist Picric Acid 10 μM; format: cell-based; settings: HEK293, compound at 25 μM; receptor activated to EC80 with the corresponding agonist; read-out: screening result against bitter receptor 71
Chain of hT2R71 (P59536 whole entry): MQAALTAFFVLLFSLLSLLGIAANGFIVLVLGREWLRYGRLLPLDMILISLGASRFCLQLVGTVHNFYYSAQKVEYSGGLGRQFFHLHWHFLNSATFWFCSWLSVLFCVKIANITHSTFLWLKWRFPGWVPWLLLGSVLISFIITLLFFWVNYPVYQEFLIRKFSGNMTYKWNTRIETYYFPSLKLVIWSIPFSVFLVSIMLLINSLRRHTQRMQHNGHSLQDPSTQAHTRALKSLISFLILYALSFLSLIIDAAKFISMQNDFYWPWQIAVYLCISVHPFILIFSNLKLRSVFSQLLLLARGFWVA
Summary of the method: as §1

[14] = system: hT2R55; experiment: hT2R panel inhibition, transient HEK293 G16g44, agonist Cinchonine 150 μM; format: cell-based, human; settings: compound at 25 μM; receptor activated to EC80 with the corresponding agonist
Summary of the method: as §1

[15] = system: hT2R65; experiment: hT2R panel inhibition, transient HEK293 G16g44, agonist Oleuropein 1 mM; format: cell-based, human; settings: compound at 25 μM; receptor activated to EC80 with the corresponding agonist
Summary of the method: as §1

[16] = system: hT2R63; experiment: hT2R panel inhibition, transient HEK293 G16g44, agonist Caffeine 1 mM or Andrographolide 100 μM; format: cell-based, human; settings: compound at 25 μM; receptor activated to EC80 with the corresponding agonist
Summary of the method: as §1

[17] = target: hT2R13 (Homo sapiens (Human), UniProt Q9NYV9); experiment: hT2R panel inhibition, transient HEK293 G16g44, agonist Oxyphenonium 1 mM; format: cell-based; settings: HEK293, compound at 25 μM; receptor activated to EC80 with the corresponding agonist; read-out: screening result against bitter receptor 13
Chain of hT2R13 (Q9NYV9 whole entry): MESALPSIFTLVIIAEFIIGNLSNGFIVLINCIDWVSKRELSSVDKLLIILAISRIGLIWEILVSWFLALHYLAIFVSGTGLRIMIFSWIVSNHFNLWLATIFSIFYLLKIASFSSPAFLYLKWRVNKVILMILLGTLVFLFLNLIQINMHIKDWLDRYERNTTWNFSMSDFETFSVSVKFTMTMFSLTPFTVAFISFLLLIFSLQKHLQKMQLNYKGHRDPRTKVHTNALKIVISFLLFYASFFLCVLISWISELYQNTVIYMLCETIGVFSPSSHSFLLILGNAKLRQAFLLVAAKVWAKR
Protocol: Specifically, in order to evaluate the inhibitory selectivity of the Compound C compound, this compound was tested against 22 human T2Rs which were deorphaned by Senomyx. These receptors and the bitter ligands that activate these human T2Rs are reported in earlier patent applications which are incorporated by reference herein. These 22 human T2Rs are hT2R1, 3, 4, 5, 7, 8, 9, 10, 13, 14, 16, 44, 51, 54, 55, 61, 63, 64, 65, 67, 71 and 75. The amino acid and nucleic acid sequences of all of these T2Rs may be found in these earlier patent applications. These human T2Rs were each individually transiently transfected into HEK293 cells that stably express the promiscuous G protein G16g44 and functional assays were effected using these receptors as disclosed in these same patent applications. […] The ligands were used at EC80 concentration levels. The list of bitter ligands utilized and the tested ligand concentrations are contained in Table 5 of this example.
Relating to the foregoing, FIG. 5 contains experimental results wherein Compound C was tested with different agonist compounds. The inhibition activity is represented by the reduction of receptor activity in the presence of Compound C. […] These 13 hT2Rs are hT2R3, 7, 10, 14, 16, 44, 51, 55, 61, 63, 64, 65, and 71.

[18] = target: hT2R5 (Homo sapiens (Human), UniProt Q9NYW4); experiment: hT2R panel inhibition, transient HEK293 G16g44, agonist Picoline 10 mM; format: cell-based; settings: HEK293, compound at 25 μM; receptor activated to EC80 with the corresponding agonist; read-out: screening result against bitter receptor 5
Chain of hT2R5 (Q9NYW4 whole entry): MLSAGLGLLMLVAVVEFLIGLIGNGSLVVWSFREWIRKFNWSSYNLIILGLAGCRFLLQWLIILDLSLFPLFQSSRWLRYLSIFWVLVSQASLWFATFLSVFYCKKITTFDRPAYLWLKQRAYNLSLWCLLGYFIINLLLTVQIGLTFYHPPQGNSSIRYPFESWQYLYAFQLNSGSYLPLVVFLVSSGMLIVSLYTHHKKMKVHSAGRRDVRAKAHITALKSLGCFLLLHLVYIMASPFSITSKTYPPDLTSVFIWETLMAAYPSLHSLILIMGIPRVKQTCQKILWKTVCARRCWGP
Summary of the method: as §1

[19] = target: T1, hT2R14; experiment: hT2R14 antagonist high-throughput FLIPR assay, stable cell line with G16g44, agonist aristolochic acid; format: cell-based; settings: read-out: IC50 on hT2R14 bitter receptor
Summary of the method: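 Compounds were co-applied with 3 μM aristolochic acid, a dose set to reach 70-80% of maximal hT2R14 activation. Read-out was FLIPR fluorescence in a stable HEK293 line co-expressing hT2R14 and G16g44.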

Chain of hT2R10 (Q9NYW0 whole entry): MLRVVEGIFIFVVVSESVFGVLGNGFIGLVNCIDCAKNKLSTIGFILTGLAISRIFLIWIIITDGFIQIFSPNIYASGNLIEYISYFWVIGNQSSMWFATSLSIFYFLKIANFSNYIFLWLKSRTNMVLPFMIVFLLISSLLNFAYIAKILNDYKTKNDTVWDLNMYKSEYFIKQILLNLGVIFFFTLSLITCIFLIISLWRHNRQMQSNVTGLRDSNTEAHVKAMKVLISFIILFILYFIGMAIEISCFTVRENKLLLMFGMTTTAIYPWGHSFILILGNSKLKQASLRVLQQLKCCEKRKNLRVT

| SMILES | inhibition at 25 µM [1] [%] | inhibition at 25 µM [2] [%] | screening result against bitter receptor 54 [3] | screening result against bitter receptor 67 [4] | inhibition at 25 µM [5] [%] | inhibition at 25 µM [6] [%] | inhibition at 25 µM [7] [%] | inhibition at 25 µM [8] [%] | inhibition at 25 µM [9] [%] | inhibition at 25 µM [10] [%] | inhibition at 25 µM [11] [%] | screening result against bitter receptor 44 [12] | inhibition at 25 µM [13] [%] | screening result against bitter receptor 55 [14] | screening result against bitter receptor 65 [15] | screening result against bitter receptor 63 [16] | inhibition at 25 µM [17] [%] | inhibition at 25 µM [18] [%] | IC50 [19] [µM] |
| --- | --- | --- | --- | --- | --- | --- | --- | --- | --- | --- | --- | --- | --- | --- | --- | --- | --- | --- | --- |
| COc1ccc(CN(Cc2ccoc2)S(=O)(=O)c2ccc(C(=O)O)cc2)cc1 [Example 5-27, 4-(N-(furan-3-ylmethyl)-N-(4-methoxybenzyl)sulfamoyl)benzoic acid] | 60 to 80 | > 80 | ++ (40% to 60% inhibition = ++) | ++ (40% to 60% inhibition = ++) | 20 to 40 | 20 to 40 | > 80 | 60 to 80 | 40 to 60 | 40 to 60 | 20 to 40 | +++ (60% to 80% inhibition = +++) | 60 to 80 | ++++ (80% or greater inhibition = ++++) | ++ (40% to 60% inhibition = ++) | +++ (60% to 80% inhibition = +++) | 20 to 40 | 40 to 60 | – |
| COc1ccc(CN(Cc2ccc(F)c(OC)c2)S(=O)(=O)c2ccc(C(=O)O)cc2)cc1 [Example 5-50, 4-(N-(4-fluoro-3-methoxybenzyl)-N-(4-methoxybenzyl)sulfamoyl)-benzoic acid] | 20 to 40 | > 80 | – | ++ (40% to 60% inhibition = ++) | – | 40 to 60 | > 80 | 60 to 80 | 40 to 60 | 20 to 40 | 20 to 40 | +++ (60% to 80% inhibition = +++) | 60 to 80 | ++++ (80% or greater inhibition = ++++) | ++ (40% to 60% inhibition = ++) | ++++ (80% or greater inhibition = ++++) | 20 to 40 | 20 to 40 | 1.65 |
| O=C(O)c1ccc(S(=O)(=O)N(Cc2ccccc2)Cc2ccc3c(c2)OCO3)cc1 [Example 5-93, 4-(N-(benzo[d][1,3]dioxol-5-ylmethyl)-N-benzylsulfamoyl)benzoic acid] | 40 to 60 | > 80 | +++ (60% to 80% inhibition = +++) | ++ (40% to 60% inhibition = ++) | – | 40 to 60 | > 80 | > 80 | – | 40 to 60 | 20 to 40 | +++ (60% to 80% inhibition = +++) | 60 to 80 | ++++ (80% or greater inhibition = ++++) | – | ++++ (80% or greater inhibition = ++++) | 20 to 40 | 20 to 40 | – |
| CCc1ccc(CN(Cc2ccccc2)S(=O)(=O)c2ccc(C(=O)O)cc2)cc1 [Example 5-85, 4-(N-benzyl-N-(4-ethylbenzyl)sulfamoyl)benzoic acid] | 40 to 60 | > 80 | +++ (60% to 80% inhibition = +++) | ++ (40% to 60% inhibition = ++) | 20 to 40 | 40 to 60 | > 80 | – | 40 to 60 | 20 to 40 | 20 to 40 | – | 20 to 40 | +++ (60% to 80% inhibition = +++) | +++ (60% to 80% inhibition = +++) | +++ (60% to 80% inhibition = +++) | 20 to 40 | 20 to 40 | – |
| O=C(O)c1ccc(S(=O)(=O)N(Cc2ccccc2)Cc2ccccc2)cc1 [Example 5-28, 4-(N,N-dibenzylsulfamoyl)benzoic acid] | – | > 80 | + (20% to 40% inhibition = +) | + (20% to 40% inhibition = +) | 20 to 40 | 20 to 40 | 40 to 60 | > 80 | – | 40 to 60 | – | + (20% to 40% inhibition = +) | 40 to 60 | ++++ (80% or greater inhibition = ++++) | – | ++++ (80% or greater inhibition = ++++) | 20 to 40 | – | 7.74 |
| O=C(O)c1ccc(S(=O)(=O)N(Cc2ccccc2)Cc2ccco2)cc1 [Example 5-5, 4-(N-benzyl-N-(furan-2-ylmethyl)sulfamoyl)benzoic acid] | 20 to 40 | > 80 | + (20% to 40% inhibition = +) | + (20% to 40% inhibition = +) | 20 to 40 | 40 to 60 | > 80 | 60 to 80 | 40 to 60 | 20 to 40 | 40 to 60 | ++ (40% to 60% inhibition = ++) | 60 to 80 | ++++ (80% or greater inhibition = ++++) | + (20% to 40% inhibition = +) | ++++ (80% or greater inhibition = ++++) | 20 to 40 | 20 to 40 | 4.6 |
